Assays:
chymotrypsin [1] = biological target: T1, chymotrypsin (Bos taurus, UniProt P00766); assay: Protease resistance experiment, chymotrypsin digest; type: in vitro ADME
T1 construct: purchased Sigma
Protocol: Immobilized chymotrypsin and proteinase K purchased from Sigma.
Protease resistance enhancement was then tested.
Towards that end, three peptides were synthesized. […] The effects were dramatic and surprising.

Human serum digests = type: in vitro ADME; conditions: reconstituted human serum, 37° C
Protocol: (§1) Delipidated/lyophilized human serum was purchased from Thermo Scientific and reconstituted as per manufacturer's instructions. 250 nmoles of peptide in 50 μLs of sodium phosphate buffer (pH=8.0) with 10% DMSO was added to 1 mL of reconstituted serum and incubated at 37° C. 100 μL aliquots were taken at various time points and quenched in 300 μLs of acetonitrile. Samples were spun down and decanted to remove precipitate followed by dilution in water to 1.5 mLs. Samples were then analyzed by HPLC as described in the protease resistance experiment.
as §1, with “μL” for “μLs”, “mLs.” for “mLs. Samples were then analyzed by HPLC as described in the protease resistance experiment.”
The human serum and human microsome stability of the Gαi1 binding SUPR peptide ([…] (SEQ ID NO: 7)) were compared to the peptides ability to bind to Her-2. Beginning with the human serum analysis, peptides were digested with 95% human serum at 37° C. Analysis was performed by HPLC. […] Therefore, intact peptide is only completely unmodified peptide. Digestions of SUPR, HMP, and PMP are show have lives very similar to SUPR. Digestion of PMP2 is in progress. Without being bound by theory, Applicants theorize that the fitting for HMP may have produced an artificially low half-life.

chymotrypsin [2] = biological target: T1, chymotrypsin; assay: Basic kinetic study with chymotrypsin (Km, Vmax); type: biochemical; conditions: relative to cycGIBP
Excerpt: Crystal structures of serine proteases such as chymotrypsin and proteinase K show a hydrogen bonding network from the protease to the backbone of their substrate at four amino acid positions. Applicants postulated that N-methylation would result in a steric clash between the substrate and protease, thereby inhibiting the ability of the protease to bind to the peptide. In enzyme kinetic terms, this would result in an enhancement of Km. Additionally, several experiments have shown that proteases such as chymotrypsin, will not cut all of their predicted digest sites equally. It has long been observed that secondary structure will have an effect on proteolysis of a protein. However, there are now several independent examples of peptides with, with no predicted secondary structure that have predicted protease digest sites that are not proteolyzed. Applicants suspect that there may be some local sequence context that is inhibitor for proteolysis. This sequence context may either make it harder for the protease to bind its substrate (Km), or it may make it more difficult for the protease to perform catalysis on the substrate (Vmax). To investigate the origin of these enhancements, Applicants conducted a basic kinetic study with chymotrypsin. Proteinase K digested GIBP too quickly for this type of analysis but could be utilized in other systems and with other peptides.

[3] = mouse, iv
Protocol: 200 μL of peptide was administered by IV injection into the tail vein of C57BL6 mice at a dose of 10 mg/kg. 50 μL blood samples were taken at various time points by orbital bleeding using heparin coated capillary tubes and isoflurane for anesthesia. Samples are diluted to 600 μLin TE buffer (pH=8.0) then filtered by centrifugation through a 3000 MWCO filter. The flowthrough was analyzed on a Shimadzu RF-5301 PC fluorometer. Time points were integrated and analyzed using Prism 5.0 software.
To that end mice were administered peptide conjugated to fluorescein by IV injection into the tail vein. Blood samples were taken by orbital bleeding. Blood peptide concentration was determined by comparing fluorescence to a 15 minute time point.

SMILES: CSCC[C@@H]1NC(=O)CCCC(=O)NCCCC[C@@H](C(N)=O)NC(=O)[C@H](CO)NC(=O)[C@H](Cc2c[nH]c3ccccc23)NC(=O)[C@H](CCC(N)=O)NC(=O)[C@H](C)N(C)C(=O)[C@H](Cc2ccc(O)cc2)NC(=O)[C@H](CCC(=O)O)NC(=O)[C@H](Cc2ccc(O)cc2)NC(=O)[C@H](C)N(C)C(=O)[C@H](Cc2ccc(O)cc2)NC(=O)[C@H](Cc2ccccc2)NC1=O [cycSUPR]
- fold more resistant to chymotrypsin (chymotrypsin [1]; compared to CycGIBP): ~200 fold
- digest sites found from chymotrypsin (chymotrypsin [1]; five theoretical digest sites): two
- half-life (Human serum digests): 6.67 days
- Km and Vmax of chymotrypsin digestion (chymotrypsin [2]): optimized for protease resistance relative to cycGIBP
- fold increase in in vivo half-life over cycGIBP [3]: roughly 35 fold
